Five compounds from ChEMBL document CHEMBL4145497, “Discovery of 2-aminothiazolyl berberine derivatives as effectively antibacterial agents toward clinically drug-resistant Gram-negative Acinetobacter baumanii” (Eur J Med Chem, 2018) can be followed below.

Values after ≈ are worked out from the molar mass of the structure shown.

What all share (assay type): functional
Assay [1] relates to Staphylococcus aureus. The assay is described as follows: Antibacterial activity against Staphylococcus aureus ATCC 25923 after 18 to 24 hrs by CLSI two fold serial dilution method.
Assay [2] relates to Staphylococcus aureus. The assay is described as follows: Antibacterial activity against methicillin-resistant Staphylococcus aureus N315 after 18 to 24 hrs by CLSI two fold serial dilution method.
For the next assay, the system named is Bacillus subtilis. Nature of the assay: Antibacterial activity against Bacillus subtilis ATCC 21216 after 18 to 24 hrs by CLSI two fold serial dilution method.
The test system of a further assay is Micrococcus luteus. The assay is described as follows: Antibacterial activity against Micrococcus luteus ATCC 4698 after 18 to 24 hrs by CLSI two fold serial dilution method.
Another assay deals with Enterococcus faecalis. Nature of the assay: Antibacterial activity against drug-resistant Enterococcus faecalis after 18 to 24 hrs by CLSI two fold serial dilution method.
The subject of assay [3] is Escherichia coli. Nature of the assay: Antibacterial activity against Escherichia coli DH52 after 18 to 24 hrs by CLSI two fold serial dilution method.
For assay [4], the system named is Escherichia coli. The assay is described as follows: Antibacterial activity against drug-resistant Escherichia coli after 18 to 24 hrs by CLSI two fold serial dilution method.
The subject of assay [5] is Pseudomonas aeruginosa. Nature of the assay: Antibacterial activity against Pseudomonas aeruginosa ATCC 27853 after 18 to 24 hrs by CLSI two fold serial dilution method.
Assay [6] relates to Pseudomonas aeruginosa. The assay is described as follows: Antibacterial activity against drug-resistant Pseudomonas aeruginosa after 18 to 24 hrs by CLSI two fold serial dilution method.
The test system of a further assay is Klebsiella pneumoniae. Nature of the assay: Antibacterial activity against drug-resistant Klebsiella pneumoniae after 18 to 24 hrs by CLSI two fold serial dilution method.
The subject of a further assay is Acinetobacter baumannii. The assay is described as follows: Antibacterial activity against drug-resistant Acinetobacter baumannii after 18 to 24 hrs by CLSI two fold serial dilution method.
Assay [7] has as its system Candida albicans. Nature of the assay: Antifungal activity against Candida albicans ATCC 76615 by CLSI two fold serial dilution method.
Another assay relates to Cyberlindnera jadinii. The assay is described as follows: Antifungal activity against Candida utilis ATCC 9950 by CLSI two fold serial dilution method. The note with it: Williopsis jadinii.
The subject of another assay is Pichia norvegensis. Nature of the assay: Antifungal activity against Candida mycoderma ATCC 96918 by CLSI two fold serial dilution method.
For another assay, the system named is Aspergillus flavus. Nature of the assay: Antifungal activity against Aspergillus flavus ATCC 204304 by CLSI two fold serial dilution method.
Another assay has as its system Saccharomyces cerevisiae. The assay is described as follows: Antifungal activity against Saccharomyces cerevisiae ATCC 9763 by CLSI two fold serial dilution method.
The subject of a further assay is Candida parapsilosis. The assay is described as follows: Antifungal activity against Candida parapsilosis ATCC 22019 by CLSI two fold serial dilution method. The note with it: Lodderomyces parapsilosis.
Assay [8] relates to Candida albicans. Nature of the assay: Antifungal activity against drug-resistant Candida albicans by CLSI two fold serial dilution method.
The next assay has as its system Candida tropicalis. The assay is described as follows: Antifungal activity against drug-resistant Candida tropicalis by CLSI two fold serial dilution method.
For another assay, the system named is Aspergillus fumigatus. Nature of the assay: Antifungal activity against drug-resistant Aspergillus fumigatus by CLSI two fold serial dilution method.

For orientation: MIC means the lowest concentration that inhibits growth of the organism. In the case of `C#CCOc1c(OC)cc(/C=N/NC(N)=S)c2c1CN1CCc3cc4c(cc3C1C2)OCO4` (stereo not given), the MIC in the assay on Staphylococcus aureus [1] was found to be 70 µM (≈ 32.5 µg/mL); with Staphylococcus aureus [2] it was 30 µM (≈ 13.9 µg/mL); against Bacillus subtilis, 550 µM (≈ 256 µg/mL); against Micrococcus luteus, 280 µM (≈ 130 µg/mL); in the assay with Enterococcus faecalis, 550 µM (≈ 256 µg/mL); with Escherichia coli [3], 140 µM (≈ 65 µg/mL). Also, the minimum inhibitory concentration (MIC) was 140 µM (≈ 65 µg/mL) in the assay with Escherichia coli [4]; 550 µM (≈ 256 µg/mL) against Pseudomonas aeruginosa [5]; 550 µM (≈ 256 µg/mL) in the assay with Pseudomonas aeruginosa [6]; 140 µM (≈ 65 µg/mL) against Klebsiella pneumoniae; 4 µM (≈ 1.86 µg/mL) with Acinetobacter baumannii; 140 µM (≈ 65 µg/mL) against Candida albicans [7]. The MIC amounted to 280 µM (≈ 130 µg/mL) against Cyberlindnera jadinii; 1100 µM (≈ 511 µg/mL) in the assay with Pichia norvegensis; 550 µM (≈ 256 µg/mL) against Aspergillus flavus; 280 µM (≈ 130 µg/mL) in the assay on Saccharomyces cerevisiae; 280 µM (≈ 130 µg/mL) with Candida parapsilosis; 140 µM (≈ 65 µg/mL) against Candida albicans [8]. Moreover, the MIC in the assay on Candida tropicalis was 140 µM (≈ 65 µg/mL); with Aspergillus fumigatus it was 20 µM (≈ 9.29 µg/mL).

As to `COc1cc(/C=N/NC(N)=S)c2c(c1O)CN1CCc3cc4c(cc3C1C2)OCO4` (stereo not given), the minimum inhibitory concentration (MIC) in the assay on Staphylococcus aureus [1] turned out to be 150 µM (≈ 64 µg/mL); in the assay with Staphylococcus aureus [2] it was 150 µM (≈ 64 µg/mL); in the assay with Bacillus subtilis, 300 µM (≈ 128 µg/mL); with Micrococcus luteus, 300 µM (≈ 128 µg/mL); against Enterococcus faecalis, 300 µM (≈ 128 µg/mL); against Escherichia coli [3], 300 µM (≈ 128 µg/mL). Also, the MIC with Escherichia coli [4] was 600 µM (≈ 256 µg/mL); in the assay on Pseudomonas aeruginosa [5] it was 150 µM (≈ 64 µg/mL); with Pseudomonas aeruginosa [6] it was 150 µM (≈ 64 µg/mL); in the assay on Klebsiella pneumoniae it was 150 µM (≈ 64 µg/mL); against Acinetobacter baumannii, 150 µM (≈ 64 µg/mL); with Candida albicans [7], 150 µM (≈ 64 µg/mL). The MIC against Cyberlindnera jadinii is 600 µM (≈ 256 µg/mL); in the assay on Pichia norvegensis, 300 µM (≈ 128 µg/mL); against Aspergillus flavus, 600 µM (≈ 256 µg/mL); with Saccharomyces cerevisiae it was 300 µM (≈ 128 µg/mL); in the assay on Candida parapsilosis, 9 µM (≈ 3.84 µg/mL); against Candida albicans [8] it was 300 µM (≈ 128 µg/mL). The results for the minimum inhibitory concentration (MIC) against Candida tropicalis and against Aspergillus fumigatus were 300 µM (≈ 128 µg/mL) and 150 µM (≈ 64 µg/mL), respectively.

Take `COc1cc(/C=N/NC(N)=S)c2c(c1OCc1ccc(F)cc1)CN1CCc3cc4c(cc3C1C2)OCO4` (stereo not given): the MIC with Staphylococcus aureus [1] was determined as 120 µM (≈ 64.2 µg/mL); with Staphylococcus aureus [2] it was 120 µM (≈ 64.2 µg/mL); with Bacillus subtilis, 480 µM (≈ 257 µg/mL); in the assay on Micrococcus luteus it was 480 µM (≈ 257 µg/mL); with Enterococcus faecalis, 120 µM (≈ 64.2 µg/mL); against Escherichia coli [3] it was 240 µM (≈ 128 µg/mL). Besides, the MIC against Escherichia coli [4] came out at 240 µM (≈ 128 µg/mL); against Pseudomonas aeruginosa [5], 240 µM (≈ 128 µg/mL); against Pseudomonas aeruginosa [6], 240 µM (≈ 128 µg/mL); in the assay with Klebsiella pneumoniae, 480 µM (≈ 257 µg/mL); with Acinetobacter baumannii it was 8 µM (≈ 4.28 µg/mL); in the assay on Candida albicans [7] it was 120 µM (≈ 64.2 µg/mL). Moreover, the MIC in the assay with Cyberlindnera jadinii turned out to be 480 µM (≈ 257 µg/mL); against Pichia norvegensis it was 240 µM (≈ 128 µg/mL); against Aspergillus flavus, 480 µM (≈ 257 µg/mL); in the assay on Saccharomyces cerevisiae, 240 µM (≈ 128 µg/mL); in the assay on Candida parapsilosis, 60 µM (≈ 32.1 µg/mL); in the assay with Candida albicans [8], 120 µM (≈ 64.2 µg/mL). Further, the MIC with Candida tropicalis and in the assay with Aspergillus fumigatus was 120 µM (≈ 64.2 µg/mL) throughout.

Take `COc1cc(/C=N/NC(N)=S)c2c(c1OCc1ccc(Cl)cc1)CN1CCc3cc4c(cc3C1C2)OCO4` (stereo not given): the MIC in the assay with Staphylococcus aureus [1] turned out to be 230 µM (≈ 127 µg/mL); against Staphylococcus aureus [2], 230 µM (≈ 127 µg/mL); with Bacillus subtilis it was 470 µM (≈ 259 µg/mL); against Micrococcus luteus, 230 µM (≈ 127 µg/mL); with Enterococcus faecalis, 230 µM (≈ 127 µg/mL); against Escherichia coli [3], 230 µM (≈ 127 µg/mL). For the same compound, the minimum inhibitory concentration (MIC) was found to be 230 µM (≈ 127 µg/mL) in the assay on Escherichia coli [4]; 230 µM (≈ 127 µg/mL) with Pseudomonas aeruginosa [5]; 230 µM (≈ 127 µg/mL) against Pseudomonas aeruginosa [6]; 120 µM (≈ 66.1 µg/mL) against Klebsiella pneumoniae; 230 µM (≈ 127 µg/mL) in the assay with Acinetobacter baumannii; 230 µM (≈ 127 µg/mL) against Candida albicans [7]. The MIC against Cyberlindnera jadinii is 470 µM (≈ 259 µg/mL); in the assay on Pichia norvegensis it was 230 µM (≈ 127 µg/mL); in the assay with Aspergillus flavus, 470 µM (≈ 259 µg/mL); in the assay with Saccharomyces cerevisiae, 470 µM (≈ 259 µg/mL); in the assay on Candida parapsilosis, 7 µM (≈ 3.86 µg/mL); against Candida albicans [8], 230 µM (≈ 127 µg/mL). The MIC in the assay with Candida tropicalis was determined as 230 µM (≈ 127 µg/mL); against Aspergillus fumigatus it was 470 µM (≈ 259 µg/mL).

For `CCCCCCCCOc1c(OC)cc(/C=N/NC(N)=S)c2c1CN1CCc3cc4c(cc3C1C2)OCO4` (stereo not given), the MIC was 60 µM (≈ 32.3 µg/mL) against Staphylococcus aureus [1]; 120 µM (≈ 64.6 µg/mL) in the assay with Staphylococcus aureus [2]; 240 µM (≈ 129 µg/mL) in the assay on Bacillus subtilis; 240 µM (≈ 129 µg/mL) against Micrococcus luteus; 120 µM (≈ 64.6 µg/mL) in the assay with Enterococcus faecalis; 240 µM (≈ 129 µg/mL) with Escherichia coli [3]. The minimum inhibitory concentration (MIC) was 240 µM (≈ 129 µg/mL) with Escherichia coli [4]; 120 µM (≈ 64.6 µg/mL) against Pseudomonas aeruginosa [5]; 120 µM (≈ 64.6 µg/mL) against Pseudomonas aeruginosa [6]; 240 µM (≈ 129 µg/mL) in the assay with Klebsiella pneumoniae; 240 µM (≈ 129 µg/mL) in the assay on Acinetobacter baumannii; 240 µM (≈ 129 µg/mL) in the assay on Candida albicans [7]. The MIC was determined as 240 µM (≈ 129 µg/mL) in the assay with Cyberlindnera jadinii; 240 µM (≈ 129 µg/mL) in the assay on Pichia norvegensis; 240 µM (≈ 129 µg/mL) against Aspergillus flavus; 480 µM (≈ 259 µg/mL) in the assay with Saccharomyces cerevisiae; 120 µM (≈ 64.6 µg/mL) in the assay with Candida parapsilosis; 240 µM (≈ 129 µg/mL) against Candida albicans [8]. In addition, the MIC with Candida tropicalis is 120 µM (≈ 64.6 µg/mL); with Aspergillus fumigatus it was 60 µM (≈ 32.3 µg/mL).
